Reference: patent US8497276B2, “Substituted indolo-piperidine compounds” (ArQule, Inc., priority 2009, dated 2013)

Legend:
[1] = tested on: DLD-1; test: MTS Assay (cell growth inhibition), DLD-1; format: cell-based; conditions: DLD-1 cells, 72 hours with test compound; concentration not given
Procedure: (§1) Cells were maintained at 37° C., 5% CO2 in DMEM media supplemented with 1% fetal bovine serum, penicillin/streptomycin and fungizone (Invitrogen). Cells were seeded into 96-well tissue culture plates at 3000 per well and cultured at 37° C. for 18 hours. Test compounds were dissolved and diluted to 300× in DMSO then diluted 1:40 in DMEM. Cells were incubated with test compounds for 72 hours followed by incubation with tetrazolium compound (3-(4,5-dimethylthiazol-2-yl)-5-(3-carboxymethoxyphenyl)-2-(4-sulfophenyl)-2H-tetrazolium, inner salt; MTS) and the electron coupling reagent, phenazine methosulfate (PMS) for 4 hours. […] The ability of compounds to inhibit cell growth in this assay is correlated with the reduction of dehydrogenase enzyme activity found in metabolically active cells. The measurement of the absorbance of the formazan was assessed using an ENVISION™ (Perkin Elmer) microplate reader at 492 nm. The calculated IC50 value is the concentration of the test compound that causes a 50% decrease in the absorbance.

[2] = tested on: Kato III; test: MTS Assay (cell growth inhibition), Kato III; format: cell-based; conditions: Kato III cells, 72 hours with test compound; concentration not given
Procedure: as §1

[3] = tested on: MDA-MB 231; test: MTS Assay (cell growth inhibition), MDA-MB 231; format: cell-based; conditions: MDA-MB 231 cells, 72 hours with test compound; concentration not given
Procedure: as §1

[4] = tested on: NCI-H1299; test: MTS Assay (cell growth inhibition), NCI-H1299; format: cell-based; conditions: NCI-H1299 cells, 72 hours with test compound; concentration not given
Procedure: as §1

[5] = tested on: PACA-2; test: MTS Assay (cell growth inhibition), PACA-2; format: cell-based; conditions: PACA-2 cells, 72 hours with test compound; concentration not given
Procedure: as §1

[6] = tested on: PC-3; test: MTS Assay (cell growth inhibition), PC-3; format: cell-based; conditions: PC-3 cells, 72 hours with test compound; concentration not given
Procedure: as §1

[7] = target: T1, Tec kinase (Homo sapiens, UniProt P42680); test: Tec Kinase Activity Assay; format: biochemical; conditions: 75 μM ATP, Pyk-2 substrate; compound concentration not given
T1 sequence (P42680 1-631): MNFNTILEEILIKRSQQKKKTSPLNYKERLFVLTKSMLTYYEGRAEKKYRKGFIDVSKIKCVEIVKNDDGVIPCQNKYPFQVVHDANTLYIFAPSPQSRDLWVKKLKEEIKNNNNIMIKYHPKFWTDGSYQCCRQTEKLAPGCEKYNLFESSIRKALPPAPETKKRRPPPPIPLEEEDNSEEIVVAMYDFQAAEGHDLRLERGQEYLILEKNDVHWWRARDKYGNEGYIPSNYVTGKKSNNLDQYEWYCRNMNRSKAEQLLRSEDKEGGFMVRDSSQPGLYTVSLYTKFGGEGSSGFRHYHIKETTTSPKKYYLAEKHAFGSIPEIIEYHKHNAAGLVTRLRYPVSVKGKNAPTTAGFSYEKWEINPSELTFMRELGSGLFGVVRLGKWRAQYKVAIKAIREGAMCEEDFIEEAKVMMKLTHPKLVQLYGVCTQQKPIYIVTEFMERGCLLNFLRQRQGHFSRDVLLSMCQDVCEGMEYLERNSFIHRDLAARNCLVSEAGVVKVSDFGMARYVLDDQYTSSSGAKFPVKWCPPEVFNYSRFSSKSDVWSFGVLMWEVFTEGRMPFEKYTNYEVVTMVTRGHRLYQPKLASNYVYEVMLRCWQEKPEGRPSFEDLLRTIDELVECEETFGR
Procedure: The disclosed compounds were assayed for their ability to inhibit the activity of Tec kinase. Nunc Maxisorb plates were coated with streptavidin by overnight incubation with 100 μl per well of 1 μg/ml Streptavidin in DPBS. Prior to the start of the experiment, the plates were washed with TBST (3×200 μl) and blocked for at least 1 hour by adding 150 μl of 5% BSA/TBST. The plates were then washed with TBST (3×200 μl/well) and left dry immediately before the capture step.
The disclosed test compounds and controls (Staurosporine and Sutent) were prepared using the following assay buffer (50 mM Tris-HCl, 0.02 mg/ml BSA, 10 mM MgCl2, 0.1 mM Na3VO4, 1 mM EGTA, 75 μM ATP, 0.01% NP-40, 2 mM DTT in 10% glycerol/water) at 3× desired final concentration. 20 μl of the test compounds (or control) and 20 μl TEC (0.25 ng/μl) were rapidly added to a reaction plate. The plate was incubated for 30 minutes. 20 μl of Pyk-2 (0.5 ng/μl) was then added to the reaction plate. The plate was incubated at room temperature for two hours.
50 μl was transferred from the reaction plate to the streptavidin coated plate. The capture plate was incubated at room temperature for 30 minutes then washed with TBST 6 times. 100 μl/well of Cell Signaling anti-phospho tyrosine was added to the capture plate at a dilution of 1:3000 in 2% BSA/TBST. The plate was incubated for one hour at room temperature then washed with TBST 6 times. 100 μl/well of alkaline phosphatase tagged goat anti-mouse antibody was added to the capture plate at a dilution of 1:4000 in 2% BSA/TBST. The plate was incubated for one hour at room temperature then washed with TBST 6 times.
The fluorescent readout was initiated by the addition of 100 μl/well of Attophos reagent (6 mg/10 ml) and the reading was done on the Perkin Elmer Envision system.

Compound	MTS cell kill data (% inhibition) DLD-1 [1]	MTS cell kill data (% inhibition) Kato III [2]	MTS cell kill data (% inhibition) MDA-MB 231 [3]	MTS cell kill data (% inhibition) NCI-H1299 [4]	MTS cell kill data (% inhibition) PACA-2 [5]	MTS cell kill data (% inhibition) PC-3 [6]	Biochemical IC50 (% inhibition) Tec [7]
Brc1n[nH]c2ncnc(N3CCc4c([nH]c5ccccc45)C3)c12 [Compound 1, 2-(3-bromo-1H-pyrazolo[3,4-d]pyrimidin-4-yl)-2,3,4,9-tetrahydro-1H-beta-carboline]	B (B = 50-79% inhibition)	A (A = 80-100% inhibition)	C (C = <50% inhibition)	B (B = 50-79% inhibition)	B (B = 50-79% inhibition)	C (C = <50% inhibition)	–
Fc1c(Cl)cccc1C1c2[nH]c3ccccc3c2CCN1c1ncnc2[nH]ccc12 (stereo not drawn) [Compound 2, 1-(3-chloro-2-fluorophenyl)-2-(7H-pyrrolo[2,3-d]pyrimidin-4-yl)-2,3,4,9-tetrahydro-1H-beta-carboline]	A (A = 80-100% inhibition)	A (A = 80-100% inhibition)	A (A = 80-100% inhibition)	A (A = 80-100% inhibition)	A (A = 80-100% inhibition)	A (A = 80-100% inhibition)	C (C = <50% inhibition)
Fc1c(Cl)cccc1C1c2[nH]c3ccccc3c2CCN1c1ncnc2[nH]cnc12 (stereo not drawn) [Compound 3, 1-(3-chloro-2-fluorophenyl)-2-(9H-purin-6-yl)-2,3,4,9-tetrahydro-1H-beta-carboline]	B (B = 50-79% inhibition)	B (B = 50-79% inhibition)	C (C = <50% inhibition)	B (B = 50-79% inhibition)	C (C = <50% inhibition)	C (C = <50% inhibition)	C (C = <50% inhibition)
Fc1ccc(C2c3[nH]c4ccccc4c3CCN2c2ncnc3[nH]ccc23)cc1 (stereo not drawn) [Compound 4, 1-(4-fluorophenyl)-2-(7H-pyrrolo[2,3-d]pyrimidin-4-yl)-2,3,4,9-tetrahydro-1H-beta-carboline]	B (B = 50-79% inhibition)	B (B = 50-79% inhibition)	C (C = <50% inhibition)	B (B = 50-79% inhibition)	B (B = 50-79% inhibition)	C (C = <50% inhibition)	B (B = 50-79% inhibition)
Fc1ccc(C2c3[nH]c4ccccc4c3CCN2c2ncnc3[nH]cnc23)cc1 (stereo not drawn) [Compound 5, 1-(4-fluorophenyl)-2-(9H-purin-6-yl)-2,3,4,9-tetrahydro-1H-beta-carboline]	C (C = <50% inhibition)	A (A = 80-100% inhibition)	A (A = 80-100% inhibition)	B (B = 50-79% inhibition)	C (C = <50% inhibition)	A (A = 80-100% inhibition)	C (C = <50% inhibition)
Fc1ccc(C2c3[nH]c4ccccc4c3CCN2c2ncnc3[nH]ncc23)cc1 (stereo not drawn) [Compound 6, 1-(4-fluorophenyl)-2-(1H-pyrazolo[3,4-d]pyrimidin-4-yl)-2,3,4,9-tetrahydro-1H-beta-carboline]	B (B = 50-79% inhibition)	A (A = 80-100% inhibition)	A (A = 80-100% inhibition)	B (B = 50-79% inhibition)	B (B = 50-79% inhibition)	C (C = <50% inhibition)	B (B = 50-79% inhibition)
Nc1nc(N2CCc3c([nH]c4ccccc34)C2c2cccc(C(F)(F)F)c2)c2cn[nH]c2n1 (stereo not drawn) [Compound 7, 4-{1-[3-(trifluoromethyl)phenyl]-1,3,4,9-tetrahydro-2H-beta-carbolin-2-yl}-1H-pyrazolo[3,4-d]pyrimidin-6-amine]	C (C = <50% inhibition)	C (C = <50% inhibition)	B (B = 50-79% inhibition)	C (C = <50% inhibition)	C (C = <50% inhibition)	A (A = 80-100% inhibition)	C (C = <50% inhibition)
FC(F)(F)c1cccc(C2c3[nH]c4ccccc4c3CCN2c2ncnc3[nH]cnc23)c1 (stereo not drawn) [Compound 8, 2-(9H-purin-6-yl)-1-[3-(trifluoromethyl)phenyl]-2,3,4,9-tetrahydro-1H-beta-carboline]	A (A = 80-100% inhibition)	A (A = 80-100% inhibition)	A (A = 80-100% inhibition)	A (A = 80-100% inhibition)	B (B = 50-79% inhibition)	A (A = 80-100% inhibition)	C (C = <50% inhibition)
FC(F)(F)c1cccc(C2c3[nH]c4ccccc4c3CCN2c2ncnc3[nH]ncc23)c1 (stereo not drawn) [Compound 9, 2-(1H-pyrazolo[3,4-d]pyrimidin-4-yl)-1-[3-(trifluoromethyl)phenyl]-2,3,4,9-tetrahydro-1H-beta-carboline]	B (B = 50-79% inhibition)	B (B = 50-79% inhibition)	B (B = 50-79% inhibition)	B (B = 50-79% inhibition)	B (B = 50-79% inhibition)	C (C = <50% inhibition)	B (B = 50-79% inhibition)
Cc1cccc(C2c3[nH]c4ccccc4c3CCN2c2ncnc3[nH]ccc23)c1 (stereo not drawn) [Compound 10, 1-(3-methylphenyl)-2-(7H-pyrrolo[2,3-d]pyrimidin-4-yl)-2,3,4,9-tetrahydro-1H-beta-carboline]	B (B = 50-79% inhibition)	B (B = 50-79% inhibition)	C (C = <50% inhibition)	B (B = 50-79% inhibition)	B (B = 50-79% inhibition)	C (C = <50% inhibition)	C (C = <50% inhibition)
